US10912741B2, “Prevention of liver cancer with safranal-based formulations” (United Arab Emirates University, priority 2019, dated 2021)
Marks after values point to notes of the source that are not given here.

Tests used:
Assay type in all cases: in vivo, albino Wistar rats
myeloperoxidase (MPO) = assay: Myeloperoxidase activity in liver homogenate, DEN/2-AAF hepatocarcinogenesis model; details: mean±SEM, 8 rats
Method: The experimental hepatocarcinogenesis model was developed according to a protocol by […] et al. that was adapted for our purposes. To initiate and promote hepatocarcinogenesis, diethylnitrosamine (DEN) and 2-acetylaminofluorene (2-AAF) were used, respectively. For hepatocarcinogenesis initiation in this model, a single DEN dose (200 mg/kg b.wt.) dissolved in saline was injected intraperitoneally. After initiation, all rats underwent one period of 5-days fasting, as mitotic proliferative stimuli. To promote hepatocarcinogenesis, 2-acetylaminofluorene (2-AAF) was introduced in the form of six daily intragastric doses (30 mg/kg in 1% Tween 80); two weeks after DEN treatment. […] at doses of 25 mg/kg by weight (b.wt.) and 50 mg/kg b.wt, was administrated orally to rats. These doses have been reported to suppress chemically-induced oxidative damage in rats. A total of 40 adult male albino Wistar rats were randomly divided into […] (n=8) and were subjected to different treatments. Group 1 (control) was orally administered distilled water (5 ml/kg b.wt.) throughout the experimental duration and were injected with a single dose of saline. Group 2 ([…] only) was subjected to a safranal dose (50 mg/kg b.wt.) through oral administration for the duration of the experimental period. Hepatocarcinogenesis was induced by DEN and promoted by 2-AAF, as reported previously, in group 3 (HCC). […] Glutathione (GSH) content was determined by analyzing liver homogenates, according to the method of Van Dooran et al. The assay depends on measuring yellow 5-thiol-2-nitrobenzoate absorbance at 412 nm. Glutathione-S-transferase (GST) activity was determined using the method of Habig et al. GST catalyzes the conjugation of GSH thiol group with 1-Chloro-2,4-dinitrobenzene (CDNB), which can be measured by determining the increase in absorbance at 340 nm. […] CAT decomposes hydrogen peroxide (H2O2) to oxygen and water; therefore, the activity of CAT was evaluated according to by the exponential decomposition of H2O2 at 240 nm. […] UV-160-Shimadzu recording spectrophotometer was used to record absorbances. […]

ED-2 (Kupffer cells) = assay: Immunohistochemical staining of liver sections, ED-2 positive cells (Kupffer cells); details: mean±SEM, 8 rats
Method: (§1) The experimental hepatocarcinogenesis model was developed according to a protocol by Espandiaria et al. that was adapted for our purposes. To initiate and promote hepatocarcinogenesis, diethylnitrosamine (DEN) and 2-acetylaminofluorene (2-AAF) were used, respectively. For hepatocarcinogenesis initiation in this model, a single DEN dose (200 mg/kg b.wt.) dissolved in saline was injected intraperitoneally. After initiation, all rats underwent one period of 5-days fasting, as mitotic proliferative stimuli. To promote hepatocarcinogenesis, 2-acetylaminofluorene (2-AAF) was introduced in the form of six daily intragastric doses (30 mg/kg in 1% Tween 80); two weeks after DEN treatment.
Safranal at doses of 25 mg/kg by weight (b.wt.) and 50 mg/kg b.wt, was administrated orally to rats. These doses have been reported to suppress chemically-induced oxidative damage in rats. A total of 40 adult male albino Wistar rats were randomly divided into […] (n=8) and were subjected to different treatments. Group 1 (control) was orally administered distilled water (5 ml/kg b.wt.) throughout the experimental duration and were injected with a single dose of saline. Group 2 (Safranal only) was subjected to a safranal dose (50 mg/kg b.wt.) through oral administration for the duration of the experimental period. Hepatocarcinogenesis was induced by DEN and promoted by 2-AAF, as reported previously, in group 3 (HCC). Rats in protective groups (groups 4-5) were treated with low/high doses of saffron-based safranal suspensions, at the beginning of promotion periods and continued for 12 weeks. The low dosage treatment with safranal consisted of 25 mg/kg b.wt., and the high dosage treatment consisted of 50 mg/kg b.wt. The experimental design is illustrated in FIG. 1.
(§2) For immunohistochemical staining, mounted sections were immersed in sodium citrate buffer (0.1 M, pH 6) and placed in a water bath for 15 minutes to unmask antigen epitopes. […] Ten fields were randomly selected to quantify positive cells, in individual samples (400×). […]

p-TNF-R1 = assay: Immunohistochemical staining of liver sections, p-TNF-R1 positive cells
Method: as §1
Safranal at doses of 25 mg/kg by weight (b.wt.) and 50 mg/kg b.wt, was administrated orally to rats. These doses have been reported to suppress chemically-induced oxidative damage in rats. A total of 40 adult male albino Wistar rats were randomly divided into […] (n=8) and were subjected to different treatments. […]
as §2

[1] = HCC (DEN/2-AAF) rats + safranal high dose 50 mg/kg b.wt. oral, 12 weeks
[2] = HCC (DEN/2-AAF) rats + safranal low dose 25 mg/kg b.wt. oral, 12 weeks
[3] = safranal alone 50 mg/kg b.wt. oral, no DEN (group 2)

CC1=C(C=O)C(C)(C)CC=C1 [Safranal, 2,6,6-trimethylcyclohexa-1,3-diene-1-carbaldehyde]
MPO (myeloperoxidase (MPO); [1]): 31.54 ± 2.4 milliunit/mg protein
MPO (myeloperoxidase (MPO); [2]): 27.47 ± 1.77 milliunit/mg protein
MPO (myeloperoxidase (MPO); [3]): 32.61 ± 1.61 milliunit/mg protein
ED-2 positive cells (ED-2 (Kupffer cells); [1]): 46.44 ± 3.12^b positive cells/field
ED-2 positive cells (ED-2 (Kupffer cells); [2]): 46.75 ± 3.04^b positive cells/field
ED-2 positive cells (ED-2 (Kupffer cells); [3]): 39.30 ± 1.77 positive cells/field
number of p-TNF-R1 positive cells (p-TNF-R1; low/high doses of safranal, DEN-2-AAF-treated animals (groups 4-5), vs HCC group): highly significant decrease
number of p-TNF-R1 positive cells (p-TNF-R1; safranal alone, compared to control group): change of no significance
